From ChEMBL document CHEMBL3132788, “A new route towards fimbrolide analogues: importance of the exomethylene motif in LuxR dependent quorum sensing inhibition” (Medchemcomm, 2013)
Activity calls are given as the source filed them. No cut-off for these calls is given here.

Experiments:
[1] = (§1) Antagonist activity at quorum sensing system in Escherichia coli NM522 carrying Vibrio fischeri luxR and luxICDBE promoter region assessed as inhibition of 3-oxo-C6HSL induced bioluminescence production after 4 to 5 hrs by luminometer
[2] = tested on: Escherichia coli; assay: Agonist activity at quorum sensing system in Escherichia coli NM522 carrying Vibrio fischeri luxR and luxICDBE promoter region assessed as bioluminescence production after 4 to 5 hrs by luminometer
[3] = tested on: Escherichia coli; assay: Growth inhibition of Escherichia coli NM522 carrying Vibrio fischeri luxR and luxICDBE promoter region at 20 uM to 20 mM after overnight incubation by disk diffusion assay; assay type: organism-based; details: in vivo
[4] = tested on: Escherichia coli; assay: as §1

Row | Compound | IC50 [1] | Activity [2] | Activity [3] | inhibition [4]
1 | CCCCC1=C(Br)/C(=C/Br)OC1=O | 45 µM |  |  | 
2 | C=C1C=C(C(O)CCCCC)C(=O)O1 (centres undefined) | 8 µM | inactive |  | 
3 | CCCC(O)C1=C/C(=C\Br)OC1=O (centres undefined) | 18 µM | inactive |  | 
4 | CCCCC1=CCOC1=O | > 200 µM | inactive |  | 
5 | CCCCCC(O)C1=C/C(=C/Br)OC1=O (centres undefined) | 6 µM | inactive |  | 
6 | CCCCC1=C/C(=C/Br)OC1=O | 0.6 µM | inactive | Non-toxic | 
7 | C=C1C=C(C(O)CCC)C(=O)O1 (centres undefined) | 52 µM | inactive |  | 
8 | C=C1C=C(CCCCCC)C(=O)O1 | > 200 µM | inactive |  | 
9 | CCCCCC(O)C1=CCOC1=O (centres undefined) |  | inactive |  | inactive
10 | CCCCCCCC(O)C1=CCOC1=O (centres undefined) |  | inactive |  | inactive
11 | C=C1C=C(C(O)CCCCCCC)C(=O)O1 (centres undefined) | 15 µM | inactive |  | 
12 | CCCCCCC1=C/C(=C/Br)OC1=O | 3 µM | inactive |  | 
13 | CCCCCCC1=CCOC1=O | > 200 µM | inactive |  | 
14 | C=C1C=C(CCCC)C(=O)O1 | > 200 µM | inactive |  | 
15 | CCCC(O)C1=C/C(=C/Br)OC1=O (centres undefined) | 14 µM | inactive |  | 
16 | CCCC(O)C1=CCOC1=O (centres undefined) |  | inactive |  | inactive
17 | CCCCCCCC(O)C1=C/C(=C/Br)OC1=O (centres undefined) | 25 µM | inactive |  | 
